According to patent US20130109721A1, “FAAH Inhibitors” (Ironwood Pharmaceuticals, Inc., priority 2009, published 2013):

Target: T1, FAAH (Homo sapiens, UniProt O00519)
T1 construct: FAAH activity was assayed in the respective homogenates described herein (Rat brain, Mouse brain or Human brain); tissue Analytical Biological Services (ABS), Inc; host or cells: human brain cortex membrane homogenate
T1 sequence (O00519 1-579): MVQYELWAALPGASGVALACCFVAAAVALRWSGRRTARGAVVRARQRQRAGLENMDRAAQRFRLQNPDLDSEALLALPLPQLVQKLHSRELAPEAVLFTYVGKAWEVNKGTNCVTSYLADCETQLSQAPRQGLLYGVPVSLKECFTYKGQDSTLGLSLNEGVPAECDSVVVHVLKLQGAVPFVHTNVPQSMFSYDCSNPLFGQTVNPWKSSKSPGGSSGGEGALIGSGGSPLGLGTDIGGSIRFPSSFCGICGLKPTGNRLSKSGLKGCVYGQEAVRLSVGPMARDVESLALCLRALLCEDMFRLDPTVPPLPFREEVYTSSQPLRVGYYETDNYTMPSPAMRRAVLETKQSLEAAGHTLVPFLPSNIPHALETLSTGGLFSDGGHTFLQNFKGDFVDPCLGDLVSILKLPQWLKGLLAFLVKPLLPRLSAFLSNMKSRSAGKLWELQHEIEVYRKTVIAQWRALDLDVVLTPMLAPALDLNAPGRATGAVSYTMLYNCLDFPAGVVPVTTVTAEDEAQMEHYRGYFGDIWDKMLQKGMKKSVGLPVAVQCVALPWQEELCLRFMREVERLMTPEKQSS
Assay: FAAH inhibition, human brain membrane homogenate assay
Format: biochemical
Conditions: average; FAAH extracted from human brain homogenate; read-out: Human brain FAAH Extract IC50
Experimental: About 10 g of frozen normal human brain cortex tissue was obtained (e.g., from Analytical Biological Services (ABS), Inc. (Wilmington, Del.)). The brain tissue was thawed and transferred to a large ceramic mortar on ice. 50 mL of ice-cold “homogenization buffer” (20 mM HEPES buffer, pH 7.0, with 1 mM MgCl2) was added to the mortar and the tissue was homogenized with a pestle. The homogenate was centrifuged at 36,500 g for 20 minutes at 4° C. The supernatants were discarded and the pellets were re-suspended in homogenization buffer and centrifuged as before. The supernatants were again discarded and the pellets were re-suspended in 30 mL homogenization buffer and incubated in a 37° C. water bath for 20 minutes. The homogenate was then centrifuged as before. The supernatant was discarded and the membrane pellets were re-suspended in 30 mL “resuspension buffer” (50 mM Tris-HCl buffer, pH 7.4, containing 1 mM EDTA and 3 mM MgCl2). A Bradford Protein assay was performed to determine protein concentration. The protein was aliquotted into screw cap Cryo tubes each containing ˜200 μL, flash frozen in liquid nitrogen and stored at −80° C. until used for the assay.
FAAH activity was assayed in the respective homogenates described herein (Rat brain, Mouse brain or Human brain) for certain exemplary substrate compounds using a modification of the method of Omeir et al. (1995 Life Sci 56:1999) and Fowler et al. (1997 J. Pharmacol Exp Ther 283:729). For assay of FAAH activity in rat brain membrane (RBM) homogenates, RBM homogenates (7 μg protein in 20 μL final volume of 10 mM Tris pH 6.5) were mixed with 180 μL of a mixture of the following: 2.0 μM unlabelled anandamide, 0.03 μCi radio labeled anandamide [ethanolamine 1-^3H] (40-60 Cis/mmol, product number ART-626, American Radiolabeled Chemicals, St. Louis, Mo.), 1 mg/mL Bovine Serum Albumin (fatty acid-free BSA, electrophoresis grade, Sigma, St. Louis, Mo.), 10 mM Tris-HCl (pH 6.5), and 1 mM EDTA in the presence and absence of test compounds (vehicle was DMSO at a final concentration of 1%) and incubated for 10 minutes at 37° C. Samples were placed on ice to terminate the reactions.
^3H-ethanolamine product and un-reacted ^3H-anandamide substrate were then separated either: (1) by using chloroform/methanol extraction or (2) by passing the reaction mixture through a glass fiber filter containing activated charcoal. Samples were extracted with chloroform/methanol by adding 0.4 mL of chloroform/methanol (1:1 v/v), vigorously mixing the samples, and separating the aqueous and organic phases by centrifugation. Radioactivity (corresponding to FAAH-catalyzed breakdown of ^3H-anandamide) found in aliquots (0.2 mL) of the aqueous phase was determined by liquid scintillation counting with quench correction. IC50 values were determined as described by Jonsson et al. (2001 Br. J. Pharmacol. 133:1263). Alternatively, reactions were purified using a modification of the solid-phase extraction method described by Wilson et al (2003 Anal. Biochem. 318:270). This method was modified as follows: after reactions were incubated at 37° C. for 10 minutes and chilled on ice, the reaction mixtures were acidified by adding 10 μL of sodium phosphate solution [0.5M (pH 2.0)]. Next, 90 μL aliquots of the acidified reaction mixtures were applied to activated charcoal (that had been previously washed with methanol as described by Wilson et al. (supra)) containing 80 μL of water on top of a glass fiber filter, centrifuged, and the radioactivity in the eluate was counted as described previously by Wilson et al. (supra).
Table 1 provides activity data for certain compounds tested for inhibition of FAAH using the FAAH rat, mouse and human brain homogenate assays. […]

| IC50 | SMILES |
| --- | --- |
| 797 nM | Cc1c(C(=O)C(=O)Nc2cccc(Cl)c2)c2ccsc2n1Cc1ccc(Cl)cc1 [Compound I-08, 2-(6-(4-chlorobenzyl)-5-methyl-6H-thieno[2,3-b]pyrrol-4-yl)-N-(3-chlorophenyl)-2-oxoacetamide] |
| 21 nM | COc1cc(NC(=O)C(=O)c2c3c(n(Cc4ccc(Cl)cc4)c2C)CCCC3)ccn1 [Compound I-18, 2-(1-(4-chlorobenzyl)-2-methyl-4,5,6,7-tetrahydro-1H-indol-3-yl)-N-(2-methoxypyridin-4-yl)-2-oxoacetamide] |
| > 50000 nM | Cc1c(C(=O)C(=O)Nc2cccc(Cl)c2)cc(-c2ccccc2)n1Cc1ccc(Cl)cc1 [Compound I-25, 2-(1-(4-chlorobenzyl)-2-methyl-5-phenyl-1H-pyrrol-3-yl)-N-(3-chlorophenyl)-2-oxoacetamide] |
| 202 nM | Cc1c(C(=O)C(=O)Nc2cccc(Cl)c2)c2c(n1Cc1ccc(Cl)cc1)CCC(C)(C)C2 [Compound I-14, 2-(1-(4-chlorobenzyl)-2,5,5-trimethyl-4,5,6,7-tetrahydro-1H-indol-3-yl)-N-(3-chlorophenyl)-2-oxoacetamide] |
| 80 nM | COc1cc(NC(=O)C(=O)c2c3c(n(Cc4ccc(Cl)cc4)c2C)CCCCCC3)ccn1 [Compound I-11, 2-(1-(4-chlorobenzyl)-2-methyl-4,5,6,7,8,9-hexahydro-1H-cycloocta[b]pyrrol-3-yl)-N-(2-methoxypyridin-4-yl)-2-oxoacetamide] |
| > 5000 nM | Cc1c(C(=O)C(=O)Nc2cccc(Cl)c2)c(-c2ccccc2)c(C)n1Cc1ccc(Cl)cc1 [Compound I-20, 2-(1-(4-chlorobenzyl)-2,5-dimethyl-4-phenyl-1H-pyrrol-3-yl)-N-(3-chlorophenyl)-2-oxoacetamide] |
| > 5000 nM | COc1cc(NC(=O)C(=O)c2c(-c3ccccc3)c(C)n(Cc3ccc(Cl)cc3)c2C)ccn1 [Compound I-19, 2-(1-(4-chlorobenzyl)-2,5-dimethyl-4-phenyl-1H-pyrrol-3-yl)-N-(2-methoxypyridin-4-yl)-2-oxoacetamide] |

Continued, compound first:

| SMILES | IC50 |
| --- | --- |
| COc1ccc(Cn2c(C)cc(C(=O)C(=O)Nc3ccnc(OC)c3)c2C)cc1 [Compound I-22, 2-(1-(4-methoxybenzyl)-2,5-dimethyl-1H-pyrrol-3-yl)-N-(2-methoxypyridin-4-yl)-2-oxoacetamide] | 4110 nM |
| COc1cc(NC(=O)C(=O)c2cc(C)n(Cc3ccc(Cl)cc3)c2-c2ccccc2)ccn1 [Compound I-23, 2-(1-(4-chlorobenzyl)-5-methyl-2-phenyl-1H-pyrrol-3-yl)-N-(2-methoxypyridin-4-yl)-2-oxoacetamide] | 2560 nM |
| Cc1c(C(=O)C(=O)Nc2cccc(Cl)c2)c2c(n1Cc1ccc(Cl)cc1)CCCC2 [Compound I-16, 2-(1-(4-chlorobenzyl)-2-methyl-4,5,6,7-tetrahydro-1H-indol-3-yl)-N-(3-chlorophenyl)-2-oxoacetamide] | 119 nM |
| Cc1c(C(=O)C(=O)Nc2cccc(Cl)c2)c2c(n1Cc1ccc(Cl)cc1)CCCCCC2 [Compound I-10, 2-(1-(4-chlorobenzyl)-2-methyl-4,5,6,7,8,9-hexahydro-1H-cycloocta[b]pyrrol-3-yl)-N-(3-chlorophenyl)-2-oxoacetamide] | 605 nM |
| COc1cc(NC(=O)C(=O)c2c(C)n(Cc3ccc(Cl)cc3)c3sccc23)ccn1 [Compound I-09, 2-(6-(4-chlorobenzyl)-5-methyl-6H-thieno[2,3-b]pyrrol-4-yl)-N-(2-methoxypyridin-4-yl)-2-oxoacetamide] | 31 nM |
| Cc1c(C(=O)C(=O)Nc2cccc(Cl)c2)c2c(n1Cc1ccc(Cl)cc1)CCCCC2 [Compound I-12, 2-(1-(4-chlorobenzyl)-2-methyl-1,4,5,6,7,8-hexahydrocyclohepta[b]pyrrol-3-yl)-N-(3-chlorophenyl)-2-oxoacetamide] | 234 nM |
| Cc1cc(C(=O)C(=O)Nc2cccc(Cl)c2)c(-c2ccccc2)n1Cc1ccc(Cl)cc1 [Compound I-24, 2-(1-(4-chlorobenzyl)-5-methyl-2-phenyl-1H-pyrrol-3-yl)-N-(3-chlorophenyl)-2-oxoacetamide] | > 50000 nM |
| COc1cc(NC(=O)C(=O)c2c3c(n(Cc4ccc(Cl)cc4)c2C)CCC(C)(C)C3)ccn1 [Compound I-15, 2-(1-(4-chlorobenzyl)-2,5,5-trimethyl-4,5,6,7-tetrahydro-1H-indol-3-yl)-N-(2-methoxypyridin-4-yl)-2-oxoacetamide] | 94 nM |
| Cc1c(C(=O)C(=O)Nc2ccncc2)cc(-c2ccccc2)n1Cc1ccc(Cl)cc1 [Compound I-26, 2-(1-(4-chlorobenzyl)-2-methyl-5-phenyl-1H-pyrrol-3-yl)-2-oxo-N-(pyridin-4-yl)acetamide] | > 50000 nM |
| COc1cc(NC(=O)C(=O)c2c3c(n(Cc4ccc(Cl)cc4)c2C)CCCCC3)ccn1 [Compound I-13, 2-(1-(4-chlorobenzyl)-2-methyl-1,4,5,6,7,8-hexahydrocyclohepta[b]pyrrol-3-yl)-N-(2-methoxypyridin-4-yl)-2-oxoacetamide] | 9 nM |
| COc1cc(NC(=O)C(=O)c2cc(C)n(Cc3ccc(Cl)cc3Cl)c2C)ccn1 [Compound I-21, 2-(1-(2,4-dichlorobenzyl)-2,5-dimethyl-1H-pyrrol-3-yl)-N-(2-methoxypyridin-4-yl)-2-oxoacetamide] | 1010 nM |
